In article PMC4774911, “Biochemical Screening of Five Protein Kinases from Plasmodium falciparum against 14,000 Cell-Active Compounds” (PLoS ONE, 2016):
pKd: −log10 of the molar value. Values joined by “and” are separate entries in the source; they are usually repeats but may differ in a detail not shown here. Identical values can stand only once.

How the values were obtained:
Experiment in all cases: biochemical
Set-up in all cases: endogenous in cells; host or cells: K562 cell extract; species or system K562 (extract); replicate k of n = 2 (each experiment ID is one independent experiment; two experiment IDs per compound)
Conditions in all cases: read-out: KDapp
[1] = target: T1, PHKG2 (Homo sapiens, UniProt P15735)
T1 sequence (P15735 1-406): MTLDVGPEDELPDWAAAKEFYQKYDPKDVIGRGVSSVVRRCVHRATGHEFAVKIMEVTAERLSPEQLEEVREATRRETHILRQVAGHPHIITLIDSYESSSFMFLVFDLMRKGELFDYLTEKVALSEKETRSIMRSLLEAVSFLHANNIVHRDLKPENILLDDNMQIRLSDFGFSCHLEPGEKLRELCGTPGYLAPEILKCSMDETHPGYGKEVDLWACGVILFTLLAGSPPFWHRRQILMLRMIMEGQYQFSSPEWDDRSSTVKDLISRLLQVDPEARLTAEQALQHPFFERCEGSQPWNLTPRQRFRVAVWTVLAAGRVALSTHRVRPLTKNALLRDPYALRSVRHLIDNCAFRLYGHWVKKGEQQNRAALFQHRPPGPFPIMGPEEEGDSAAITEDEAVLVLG

[2] = target: T2, MAP3K6 (Homo sapiens, UniProt O95382)
T2 sequence (O95382 1-1288): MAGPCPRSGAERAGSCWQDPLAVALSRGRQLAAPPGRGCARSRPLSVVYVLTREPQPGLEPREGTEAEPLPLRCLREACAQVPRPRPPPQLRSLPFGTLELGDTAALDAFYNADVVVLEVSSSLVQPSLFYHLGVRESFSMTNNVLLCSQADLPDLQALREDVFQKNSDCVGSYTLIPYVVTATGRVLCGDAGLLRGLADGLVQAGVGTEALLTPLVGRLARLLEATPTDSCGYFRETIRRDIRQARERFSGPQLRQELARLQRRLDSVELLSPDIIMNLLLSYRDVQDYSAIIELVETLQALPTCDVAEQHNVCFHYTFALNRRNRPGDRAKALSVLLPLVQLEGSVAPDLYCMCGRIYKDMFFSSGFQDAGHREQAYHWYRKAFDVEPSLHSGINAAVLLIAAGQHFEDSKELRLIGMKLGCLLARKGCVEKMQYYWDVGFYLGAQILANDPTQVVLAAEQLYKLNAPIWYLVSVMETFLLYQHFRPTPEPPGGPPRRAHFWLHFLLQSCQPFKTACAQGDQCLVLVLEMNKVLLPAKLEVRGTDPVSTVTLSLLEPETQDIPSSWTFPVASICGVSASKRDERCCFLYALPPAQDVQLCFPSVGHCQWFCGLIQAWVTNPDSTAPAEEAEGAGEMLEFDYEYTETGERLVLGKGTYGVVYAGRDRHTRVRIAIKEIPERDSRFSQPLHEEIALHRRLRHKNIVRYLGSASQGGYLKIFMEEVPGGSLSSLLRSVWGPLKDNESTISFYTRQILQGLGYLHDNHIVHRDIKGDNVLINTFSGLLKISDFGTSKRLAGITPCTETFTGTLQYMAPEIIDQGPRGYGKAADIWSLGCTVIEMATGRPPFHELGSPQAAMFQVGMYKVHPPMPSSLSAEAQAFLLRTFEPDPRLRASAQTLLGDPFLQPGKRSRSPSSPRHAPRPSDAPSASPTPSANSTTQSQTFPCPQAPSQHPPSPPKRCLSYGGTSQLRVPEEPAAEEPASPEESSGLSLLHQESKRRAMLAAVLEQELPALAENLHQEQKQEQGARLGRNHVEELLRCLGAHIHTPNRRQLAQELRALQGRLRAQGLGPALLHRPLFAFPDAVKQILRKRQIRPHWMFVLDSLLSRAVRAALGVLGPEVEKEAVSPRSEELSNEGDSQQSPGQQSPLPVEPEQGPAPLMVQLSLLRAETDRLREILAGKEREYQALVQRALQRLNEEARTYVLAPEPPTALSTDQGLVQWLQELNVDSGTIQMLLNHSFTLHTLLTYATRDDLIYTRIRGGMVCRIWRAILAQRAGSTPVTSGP

[3] = target: IRAK1 (Homo sapiens, UniProt P51617)
Chain of IRAK1 (P51617 whole entry): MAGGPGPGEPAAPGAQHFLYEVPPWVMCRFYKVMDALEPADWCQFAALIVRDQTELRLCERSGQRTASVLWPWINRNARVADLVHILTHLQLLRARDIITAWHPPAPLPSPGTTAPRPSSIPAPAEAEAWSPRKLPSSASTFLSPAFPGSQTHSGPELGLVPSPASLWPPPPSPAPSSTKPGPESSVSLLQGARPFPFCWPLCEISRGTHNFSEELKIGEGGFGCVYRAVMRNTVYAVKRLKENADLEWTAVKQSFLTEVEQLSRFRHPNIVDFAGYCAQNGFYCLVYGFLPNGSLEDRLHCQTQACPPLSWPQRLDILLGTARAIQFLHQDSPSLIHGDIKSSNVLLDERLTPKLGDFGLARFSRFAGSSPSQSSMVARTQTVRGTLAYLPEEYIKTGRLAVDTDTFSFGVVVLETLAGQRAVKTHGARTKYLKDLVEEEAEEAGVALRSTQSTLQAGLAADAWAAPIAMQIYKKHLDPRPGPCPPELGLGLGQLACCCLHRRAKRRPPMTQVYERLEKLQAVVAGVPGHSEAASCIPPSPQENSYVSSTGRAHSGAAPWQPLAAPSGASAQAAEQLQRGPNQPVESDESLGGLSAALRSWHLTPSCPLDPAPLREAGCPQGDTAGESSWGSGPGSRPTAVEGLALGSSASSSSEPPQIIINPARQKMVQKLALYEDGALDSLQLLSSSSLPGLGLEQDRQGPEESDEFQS

[4] = target: BTK (Homo sapiens, UniProt Q06187)
Chain of BTK (Q06187 whole entry): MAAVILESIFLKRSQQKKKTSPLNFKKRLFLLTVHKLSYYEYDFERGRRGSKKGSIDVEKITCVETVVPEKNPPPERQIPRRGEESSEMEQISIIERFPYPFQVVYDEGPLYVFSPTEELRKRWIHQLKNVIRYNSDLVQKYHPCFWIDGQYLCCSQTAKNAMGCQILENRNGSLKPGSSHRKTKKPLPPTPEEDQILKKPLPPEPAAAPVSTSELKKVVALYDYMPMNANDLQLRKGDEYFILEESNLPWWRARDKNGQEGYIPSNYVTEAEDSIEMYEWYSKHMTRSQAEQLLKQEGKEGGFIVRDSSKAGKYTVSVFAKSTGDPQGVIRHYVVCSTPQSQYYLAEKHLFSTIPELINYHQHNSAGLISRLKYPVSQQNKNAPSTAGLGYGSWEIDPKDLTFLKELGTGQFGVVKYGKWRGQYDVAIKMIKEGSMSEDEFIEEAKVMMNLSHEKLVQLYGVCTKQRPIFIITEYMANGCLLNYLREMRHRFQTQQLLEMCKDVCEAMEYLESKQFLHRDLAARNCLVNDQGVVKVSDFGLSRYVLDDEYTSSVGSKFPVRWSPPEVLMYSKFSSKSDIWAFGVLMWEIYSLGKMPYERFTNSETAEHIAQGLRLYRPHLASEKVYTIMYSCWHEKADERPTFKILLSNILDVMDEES

[5] = target: T3, TP53RK (Homo sapiens, UniProt Q96S44)
T3 sequence (Q96S44 1-253): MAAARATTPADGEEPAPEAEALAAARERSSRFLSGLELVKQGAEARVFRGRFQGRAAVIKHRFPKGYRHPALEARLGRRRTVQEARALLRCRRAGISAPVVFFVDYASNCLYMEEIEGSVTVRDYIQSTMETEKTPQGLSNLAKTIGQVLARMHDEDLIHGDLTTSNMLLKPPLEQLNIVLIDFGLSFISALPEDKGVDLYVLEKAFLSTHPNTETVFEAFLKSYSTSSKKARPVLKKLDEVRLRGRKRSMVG

[6] = target: CDK2 (Homo sapiens, UniProt P24941)

In the case of `CN1CCN(c2ccc(Nc3ncc(C#N)c(Nc4ccccc4C(N)=O)n3)cc2)CC1.Cl` [TCMDC-134116], the pKd [1] was 5.65, the pKd [2] was 6.00 and 6.06 and the pKd [3] was 7.03 and 7.09. For the same compound, the pKd [4] was 6.68 and 6.64, the pKd [5] was 5.42 and the pKd [6] was 6.87 and 6.88.
